Laboratory results taken from US20250115591A1, “NOVEL SULFONAMIDE CARBOXAMIDE COMPOUNDS” (INFLAZOME LIMITED, priority 2017, published 2025).
Where a name gives a salt, the structure may show the parent alone.

Target: NLRP3 (Homo sapiens (Human), UniProt Q96P20)
Assay: THP-1 cells pyroptosis assay (LPS + nigericin, resazurin read-out)
Type: cell-based
Conditions: 1 μg/ml LPS, 5 μM nigericin
Experimental: THP-1 cells (ATCC #TIB-202) were grown in RPMI containing L-glutamine (Gibco 15 #11835) supplemented with 1 mM sodium pyruvate (Sigma #S8636) and penicillin (100 units/ml)/streptomycin (0.1 mg/ml) (Sigma #P4333) in 10% Fetal Bovine Serum (FBS) (Sigma #F0804). The cells were routinely passaged and grown to confluency (˜10^6 cells/ml). On the day of the experiment, THP-1 cells were harvested and resuspended into RPMI medium (without FBS). The cells were then counted and viability (>90%) checked by Trypan blue (Sigma #T8154). Appropriate dilutions were made to give a concentration of 625,000 cells/ml. To this diluted cell solution was added LPS (Sigma #[4524) to give a 1 μg/ml Final Assay Concentration (FAC). 40μ of the final preparation was aliquoted into each well of a 96-well plate. The plate thus prepared was used for compound screening.
The following method step-by-step assay was followed for compound screening. • 1. Seed THP-1 cells (25,000 cells/well) containing 1.0 μg/ml LPS in 40μ of RPMI medium (without FBS) in 96-well, black walled, clear bottom cell culture plates coated with poly-D-lysine (VWR #734-0317) • 2. Add 5 μl compound (8 points half-log dilution, with […]) or vehicle (DMSO 0.1% FAC) to the appropriate wells • 3. Incubate for 3 hrs at 37° C. and 5% CO2 • 4. Add 5 μl nigericin (Sigma #N7143) (FAC 5 μM) to all wells • 5. Incubate for 1 hr at 37° C. and 5% CO2 • 6. At the end of the incubation period, spin plates at 300×g for 3 mins and remove supernatant • 7. Then add 50 μl of resazurin (Sigma #R7017) (FAC 100 μM resazurin in RPMI medium without FBS) and incubate plates for a further 1-2 hrs at 37° C. and 5% CO2 • 8. Plates were read in an Envision reader at Ex 560 nm and Em 590 nm • 9. IC50 data is fitted to a non-linear regression equation (log inhibitor vs response-variable slope 4-parameters)

NLRP3, sequence (Q96P20 whole entry): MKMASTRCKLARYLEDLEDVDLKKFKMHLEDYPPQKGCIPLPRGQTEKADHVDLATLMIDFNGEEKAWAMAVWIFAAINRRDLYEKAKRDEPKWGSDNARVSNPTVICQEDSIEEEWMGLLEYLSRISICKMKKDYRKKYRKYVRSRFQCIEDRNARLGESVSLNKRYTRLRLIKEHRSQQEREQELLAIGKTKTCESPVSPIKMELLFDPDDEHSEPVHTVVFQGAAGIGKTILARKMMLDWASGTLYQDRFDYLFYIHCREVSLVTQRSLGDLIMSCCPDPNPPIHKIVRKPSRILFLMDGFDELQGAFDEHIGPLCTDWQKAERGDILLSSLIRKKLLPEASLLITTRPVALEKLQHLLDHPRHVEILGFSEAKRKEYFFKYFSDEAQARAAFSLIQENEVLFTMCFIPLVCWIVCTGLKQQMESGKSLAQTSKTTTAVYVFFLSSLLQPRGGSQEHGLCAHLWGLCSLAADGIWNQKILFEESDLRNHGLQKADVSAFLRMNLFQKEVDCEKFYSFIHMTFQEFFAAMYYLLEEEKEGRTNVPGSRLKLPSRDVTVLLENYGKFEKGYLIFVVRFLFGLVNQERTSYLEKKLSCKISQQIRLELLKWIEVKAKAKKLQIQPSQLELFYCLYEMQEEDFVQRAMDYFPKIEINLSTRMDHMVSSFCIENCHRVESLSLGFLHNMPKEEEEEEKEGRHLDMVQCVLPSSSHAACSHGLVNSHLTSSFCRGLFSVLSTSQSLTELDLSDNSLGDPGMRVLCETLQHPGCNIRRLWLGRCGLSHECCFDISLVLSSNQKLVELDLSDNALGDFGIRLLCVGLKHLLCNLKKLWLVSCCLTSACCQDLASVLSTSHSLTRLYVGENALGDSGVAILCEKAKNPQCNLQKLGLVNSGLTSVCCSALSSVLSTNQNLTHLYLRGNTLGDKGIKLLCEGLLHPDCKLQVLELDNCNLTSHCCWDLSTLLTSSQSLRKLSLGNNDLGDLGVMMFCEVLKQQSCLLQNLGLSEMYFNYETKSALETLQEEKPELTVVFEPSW

SMILES | IC50 [nM]
CC(C)C(=O)N1CCC(S(=O)(=O)NC(=O)Nc2c3c(cc4c2CCC4)CCC3)CC1 [Example 11, N-((1,2,3,5,6,7-Hexahydro-s-indacen-4-yl)carbamoyl)-1-isobutyrylpiperidine-4-sulfonamide, potassium salt] | 1000 to 10000
CCN1CCC(N2CC(S(=O)(=O)NC(=O)Nc3c4c(cc5c3CCC5)CCC4)C2)CC1 [Example 73, 1-(1-Ethylpiperidin-4-yl)-N-((1,2,3,5,6,7-hexahydro-s-indacen-4-yl)carbamoyl)azetidine-3-sulfonamide, potassium salt] | 1000 to 10000
O=C(Nc1c2c(cc3c1CCC3)CCC2)NS(=O)(=O)C1CCN(C(=O)C2CCC2)CC1 [Example 25, 1-(Cyclobutanecarbonyl)-N-((1,2,3,5,6,7-hexahydro-s-indacen-4-yl)carbamoyl)piperidine-4-sulfonamide, potassium salt] | 1000 to 10000
O=C(Nc1c2c(cc3c1CCC3)CCC2)NS(=O)(=O)C1CN(CC2CCCCC2)C1 [Example 89, 1-(Cyclohexylmethyl)-N-((1,2,3,5,6,7-hexahydro-s-indacen-4-yl)carbamoyl)azetidine-3-sulfonamide, potassium salt] | 1000 to 10000
CN1CC(N2CCC(S(=O)(=O)NC(=O)Nc3c4c(cc5c3CCC5)CCC4)CC2)C1 [Example 80, N-((1,2,3,5,6,7-Hexahydro-s-indacen-4-yl)carbamoyl)-1-(1-methylazetidin-3-yl)piperidine-4-sulfonamide, potassium salt] | 1000 to 10000
N#CCN1CCCC(S(=O)(=O)NC(=O)Nc2c3c(cc4c2CCC4)CCC3)C1 (stereo not drawn) [Example 58, 1-(Cyanomethyl)-N-((1,2,3,5,6,7-hexahydro-s-indacen-4-yl)carbamoyl)piperidine-3-sulfonamide, potassium salt] | 1000 to 10000
CN1CC2(CC(S(=O)(=O)NC(=O)Nc3c4c(cc5c3CCC5)CCC4)C2)C1 [Example 64, N-((1,2,3,5,6,7-Hexahydro-s-indacen-4-yl)carbamoyl)-2-methyl-2-azaspiro[3.3]heptane-6-sulfonamide, potassium salt] | 1000 to 10000
CC(C)(O)CN1CC(S(=O)(=O)NC(=O)Nc2c3c(cc4c2CCC4)CCC3)C1 [Example 84, N-((1,2,3,5,6,7-Hexahydro-s-indacen-4-yl)carbamoyl)-1-(2-hydroxy-2-methylpropyl)azetidine-3-sulfonamide, potassium salt] | < 1000
COC(=O)CN1CCC(S(=O)(=O)NC(=O)Nc2c3c(cc4c2CCC4)CCC3)CC1 [Example 21, Methyl 2-(4-(N-((1,2,3,5,6,7-Hexahydro-s-indacen-4-yl)carbamoyl)sulfamoyl)piperidin-1-yl)acetate, potassium salt] | 1000 to 10000
CCC(CC)N1CCC(S(=O)(=O)NC(=O)Nc2c3c(cc4c2CCC4)CCC3)C1 (stereo not drawn) [Example 81, N-((1,2,3,5,6,7-Hexahydro-s-indacen-4-yl)carbamoyl)-1-(pentan-3-yl)pyrrolidine-3-sulfonamide, potassium salt] | 1000 to 10000
CC(C)N1CCC(S(=O)(=O)NC(=O)Nc2c3c(cc4c2CCC4)CCC3)C1=O (stereo not drawn) [Example 68, N-((1,2,3,5,6,7-Hexahydro-s-indacen-4-yl)carbamoyl)-1-isopropyl-2-oxopyrrolidine-3-sulfonamide, potassium salt] | < 1000
CS(=O)(=O)N1CCC(S(=O)(=O)NC(=O)Nc2c3c(cc4c2CCC4)CCC3)CC1 [Example 29, N-((1,2,3,5,6,7-Hexahydro-s-indacen-4-yl)carbamoyl)-1-(methylsulfonyl)piperidine-4-sulfonamide, potassium salt] | 1000 to 10000
CC1(CCN2CC(S(=O)(=O)NC(=O)Nc3c4c(cc5c3CCC5)CCC4)C2)N=N1 [Example 139, N-((1,2,3,5,6,7-Hexahydro-s-indacen-4-yl)carbamoyl)-1-(2-(3-methyl-3H-diazirin-3-yl)ethyl)azetidine-3-sulfonamide, potassium salt] | 1000 to 10000
CC(=O)N1CC(N2CCC(S(=O)(=O)NC(=O)Nc3c4c(cc5c3CCC5)CCC4)CC2)C1 [Example 79, 1-(1-Acetylazetidin-3-yl)-N-((1,2,3,5,6,7-hexahydro-s-indacen-4-yl)carbamoyl)piperidine-4-sulfonamide, potassium salt] | 1000 to 10000
CCN1CC(S(=O)(=O)NC(=O)Nc2c(-c3ccnc(C#N)c3)cc(F)cc2C(C)C)C1 [Example 165, N-((2-(2-Cyanopyridin-4-yl)-4-fluoro-6-isopropylphenyl)carbamoyl)-1-ethylazetidine-3-sulfonamide] | 1000 to 10000
O=C(Nc1c2c(cc3c1CCC3)CCC2)NS(=O)(=O)C1CN(C(CF)CF)C1 [Example 86, 1-(1,3-Difluoropropan-2-yl)-N-((1,2,3,5,6,7-hexahydro-s-indacen-4-yl)carbamoyl)azetidine-3-sulfonamide, potassium salt] | 1000 to 10000
CCN1CC(S(=O)(=O)NC(=O)Nc2c(-c3ccnc(OC)c3)cc(F)cc2C(C)C)C1 [Example 166, 1-Ethyl-N-((4-fluoro-2-isopropyl-6-(2-methoxypyridin-4-yl)phenyl)carbamoyl)azetidine-3-sulfonamide] | 1000 to 10000
Cn1ccnc1CN1CC(S(=O)(=O)NC(=O)Nc2c3c(cc4c2CCC4)CCC3)C1 [Example 123, N-((1,2,3,5,6,7-Hexahydro-s-indacen-4-yl)carbamoyl)-1-((1-methyl-1H-imidazol-2-yl)methyl)azetidine-3-sulfonamide, potassium salt] | 1000 to 10000
CCC(=O)N1CCC(S(=O)(=O)NC(=O)Nc2c3c(cc4c2CCC4)CCC3)CC1 [Example 10, N-((1,2,3,5,6,7-Hexahydro-s-indacen-4-yl)carbamoyl)-1-propionylpiperidine-4-sulfonamide, potassium salt] | 1000 to 10000
CN1CCC(S(=O)(=O)NC(=O)Nc2c3c(cc4c2CCC4)CCC3)C1 (stereo not drawn) [Example 36, N-((1,2,3,5,6,7-Hexahydro-s-indacen-4-yl)carbamoyl)-1-methylpyrrolidine-3-sulfonamide, potassium salt] | 1000 to 10000
CN1CCCC(S(=O)(=O)NC(=O)Nc2c3c(cc4c2CCC4)CCC3)C1 (stereo not drawn) [Example 60, N-((1,2,3,5,6,7-Hexahydro-s-indacen-4-yl)carbamoyl)-1-methylpiperidine-3-sulfonamide, potassium salt] | 1000 to 10000
CN(C)CCN1CC(S(=O)(=O)NC(=O)Nc2c3c(cc4c2CCC4)CCC3)C1 [Example 102, 1-(2-(Dimethylamino)ethyl)-N-((1,2,3,5,6,7-hexahydro-s-indacen-4-yl)carbamoyl)azetidine-3-sulfonamide, potassium salt] | 1000 to 10000
O=C(Nc1c2c(cc3c1CCC3)CCC2)NS(=O)(=O)C1CN(Cc2ccccn2)C1 [Example 104, N-((1,2,3,5,6,7-Hexahydro-s-indacen-4-yl)carbamoyl)-1-(pyridin-2-ylmethyl)azetidine-3-sulfonamide, potassium salt] | < 1000
CC(C)n1cccc(S(=O)(=O)NC(=O)Nc2c3c(cc4c2CCC4)CCC3)c1=O [Example 182, N-((1,2,3,5,6,7-Hexahydro-s-indacen-4-yl)carbamoyl)-1-isopropyl-2-oxo-1,2-dihydropyridine-3-sulfonamide] | 1000 to 10000
CCN1CCC(S(=O)(=O)NC(=O)Nc2c(-c3ccnc(OC)c3)ccc3c2CCC3)CC1 [Example 188, 1-Ethyl-N-((5-(2-methoxypyridin-4-yl)-2,3-dihydro-1H-inden-4-yl)carbamoyl)piperidine-4-sulfonamide, potassium salt] | 1000 to 10000
CN(C)C(=O)N1CCC(S(=O)(=O)NC(=O)Nc2c3c(cc4c2CCC4)CCC3)C1 (stereo not drawn) [Example 40, 3-(N-((1,2,3,5,6,7-Hexahydro-s-indacen-4-yl)carbamoyl)sulfamoyl)-N,N-dimethylpyrrolidine-1-carboxamide] | 1000 to 10000
CCCN1CCC(S(=O)(=O)NC(=O)Nc2c3c(cc4c2CCC4)CCC3)CC1 [Example 19, N-((1,2,3,5,6,7-Hexahydro-s-indacen-4-yl)carbamoyl)-1-propyl piperidine-4-sulfonamide, potassium salt] | 1000 to 10000
O=C(Nc1c2c(cc3c1CCC3)CCC2)NS(=O)(=O)C1CCN(CCF)CC1 [Example 22, 1-(2-Fluoroethyl)-N-((1,2,3,5,6,7-hexahydro-s-indacen-4-yl)carbamoyl)piperidine-4-sulfonamide, potassium salt] | 1000 to 10000
CCN1CC(S(=O)(=O)NC(=O)Nc2c3c(cc4c2CCC4)CCC3)CC1=O (stereo not drawn) [Example 147, 1-Ethyl-N-((1,2,3,5,6,7-hexahydro-s-indacen-4-yl)carbamoyl)-5-oxopyrrolidine-3-sulfonamide, potassium salt] | 1000 to 10000
CC(C)N1CC2(CC(S(=O)(=O)NC(=O)Nc3c4c(cc5c3CCC5)CCC4)C2)C1 [Example 63, N-((1,2,3,5,6,7-Hexahydro-s-indacen-4-yl)carbamoyl)-2-isopropyl-2-azaspiro[3.3]heptane-6-sulfonamide, potassium salt] | 1000 to 10000
